Assay results reported in PMC9448872 (Frontiers in Cell and Developmental Biology, 2022).

Legend:
[1] = test system: αvβ6 endocytosis in C76 cells; assay: Flow cytometry internalisation assay using TCEP reduction in C76 cells (inhibitors, siRNA); format: cell-based; parameters: internalisation of A20FMDV2 with Clathrin inhibitor: concentration or dose not given beside the values
[2] = test system: C76 cells; assay: Transwell migration assay; conditions: Transwells coated with 0.5 μg/ml LAP, 16 h, vehicle control 547 ± 128, p < 0.05
[3] = biological target: T1, αvβ6 (Homo sapiens, UniProt P06756+P18564); conditions: cited from earlier work
T1 construct: endogenous in cells; host or cells: panel of breast, pancreas and lung cell lines (C76, C102, C139, H322M, H441, H358, MCF10A, MCF10CA1α, MDAMB468, BT20, HPDE, NHBE)

[4] = test system: C76 cells; assay: Cell viability by flow cytometry and DAPI uptake; format: cell-based; conditions: 500nM of TCEP, DAPI uptake, mean, n = 2 (95% without TCEP)
[5] = test system: FMDV; conditions: cited from earlier work

T1 sequence (P06756 31-889 limits assumed): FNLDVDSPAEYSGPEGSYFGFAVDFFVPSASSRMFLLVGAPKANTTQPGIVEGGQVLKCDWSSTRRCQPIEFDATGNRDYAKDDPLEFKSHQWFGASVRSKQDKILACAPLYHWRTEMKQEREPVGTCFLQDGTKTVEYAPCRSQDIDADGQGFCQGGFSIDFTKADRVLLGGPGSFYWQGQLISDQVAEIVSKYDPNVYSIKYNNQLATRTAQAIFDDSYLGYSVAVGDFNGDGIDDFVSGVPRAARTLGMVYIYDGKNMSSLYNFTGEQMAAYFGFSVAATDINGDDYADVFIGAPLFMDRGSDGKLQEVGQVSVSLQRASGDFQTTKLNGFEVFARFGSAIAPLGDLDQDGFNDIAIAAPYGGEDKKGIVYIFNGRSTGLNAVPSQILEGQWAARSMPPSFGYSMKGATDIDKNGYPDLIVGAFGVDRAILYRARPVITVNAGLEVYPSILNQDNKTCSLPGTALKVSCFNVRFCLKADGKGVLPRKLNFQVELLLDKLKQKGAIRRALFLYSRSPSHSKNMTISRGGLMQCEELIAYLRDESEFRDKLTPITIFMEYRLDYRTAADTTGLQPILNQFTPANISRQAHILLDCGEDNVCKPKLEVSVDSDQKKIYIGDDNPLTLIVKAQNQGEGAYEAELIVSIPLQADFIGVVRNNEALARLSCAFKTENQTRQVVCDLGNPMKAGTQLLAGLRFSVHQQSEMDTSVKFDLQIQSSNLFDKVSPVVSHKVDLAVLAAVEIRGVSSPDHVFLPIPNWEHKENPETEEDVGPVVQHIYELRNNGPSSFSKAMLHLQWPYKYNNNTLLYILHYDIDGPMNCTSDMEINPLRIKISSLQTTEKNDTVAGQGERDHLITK
T1 sequence (P06756 891-1048 limits assumed): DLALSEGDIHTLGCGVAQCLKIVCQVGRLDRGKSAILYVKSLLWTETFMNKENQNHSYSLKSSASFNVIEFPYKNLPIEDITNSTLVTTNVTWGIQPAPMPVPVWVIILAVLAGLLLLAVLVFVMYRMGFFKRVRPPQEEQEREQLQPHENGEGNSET
T1 sequence (P18564 22-788): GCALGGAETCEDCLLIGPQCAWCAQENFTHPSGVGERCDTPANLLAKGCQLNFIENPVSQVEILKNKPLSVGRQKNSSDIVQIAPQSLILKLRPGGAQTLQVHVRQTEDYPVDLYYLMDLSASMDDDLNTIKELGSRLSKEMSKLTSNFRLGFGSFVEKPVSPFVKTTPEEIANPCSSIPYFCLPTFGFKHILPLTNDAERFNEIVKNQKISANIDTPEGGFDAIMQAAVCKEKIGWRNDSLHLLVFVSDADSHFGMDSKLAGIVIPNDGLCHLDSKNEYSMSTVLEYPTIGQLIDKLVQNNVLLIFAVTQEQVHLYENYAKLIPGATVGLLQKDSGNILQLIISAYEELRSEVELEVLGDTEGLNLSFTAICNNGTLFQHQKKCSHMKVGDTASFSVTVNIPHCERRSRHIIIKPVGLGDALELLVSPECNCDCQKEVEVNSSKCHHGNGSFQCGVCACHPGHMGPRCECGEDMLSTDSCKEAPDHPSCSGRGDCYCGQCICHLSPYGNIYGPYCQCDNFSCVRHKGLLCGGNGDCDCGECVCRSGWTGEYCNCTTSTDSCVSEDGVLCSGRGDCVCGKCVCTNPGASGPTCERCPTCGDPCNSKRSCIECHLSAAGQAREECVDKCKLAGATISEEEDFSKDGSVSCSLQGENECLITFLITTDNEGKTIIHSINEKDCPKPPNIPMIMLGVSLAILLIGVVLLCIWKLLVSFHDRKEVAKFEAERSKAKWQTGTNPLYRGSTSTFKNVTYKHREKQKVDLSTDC

SMILES: CN(C)CCCN1c2ccccc2Sc2ccc(Cl)cc21 [Chlorpromazine]
- internalisation of αvβ6-bound Cy5-SS-(GS)5-bioA20FMDV2 with clathrin inhibitor ([1]; C76 cells pre-treated with 2 ug/ml Chlorpromazine, 20 min, n = 3, p < 0.05): 39 ± 2.5%
- internalisation of A20FMDV2 with Clathrin inhibitor ([1]; C76 cells, ARFGAP siRNA knockdown + clathrin inhibitor, n = 3): 6.2 ± 3.5%
- internalisation of A20FMDV2 with Clathrin inhibitor ([1]; C76 cells, ASAP siRNA knockdown + clathrin inhibitor, n = 3): 9.4 ± 9.9%
- internalisation of A20FMDV2 with Clathrin inhibitor ([1]; C76 cells, CBL siRNA knockdown + clathrin inhibitor, n = 3): 14 ± 8%
- internalisation of A20FMDV2 with Clathrin inhibitor ([1]; C76 cells, CBLB siRNA knockdown + clathrin inhibitor, n = 3): 7.4 ± 3.9%
- internalisation of A20FMDV2 with Clathrin inhibitor ([1]; C76 cells, CYTH2 siRNA knockdown + clathrin inhibitor, n = 3): 13 ± 11.7%
- internalisation of A20FMDV2 with Clathrin inhibitor ([1]; C76 cells, non-targeting (NT) siRNA + chlorpromazine, n = 3, not significant): 14 ± 6.5%
- number of cells migrating towards LAP [2]: 225 ± 73

SMILES: CCCCC[C@@H](O)[C@H]1C(=O)O[C@H](C)[C@@H](O)/C=C/C=C/C=C/C=C/C=C(\C)[C@@H](O)C[C@H](O)C[C@H](O)C[C@H](O)C[C@H](O)C[C@H](O)C[C@@H]1O [Filipin]
- internalisation of αvβ6-bound Cy5-SS-(GS)5-bioA20FMDV2 with caveolin inhibitor ([1]; C76 cells pre-treated with 10 ug/ml Filipin, n = 3, p < 0.05): 19.7 ± 3.9%
- reduction in the number of cells with internalised αVβ6-A20FMDV2 ([1]; C76 cells, caveolin inhibited (Filipin)): 41%
- reduction in αvβ6 internalisation with caveolin inhibitor [3]: not statistically significant
- number of cells migrating towards LAP [2]: 280 ± 51

SMILES: O=C(O)CCP(CCC(=O)O)CCC(=O)O [TCEP, tris(2-carboxyethyl)phosphine]
- cells viable [4]: 68%

SMILES: OC[C@H]1O[C@@](CO)(O[C@H]2O[C@H](CO)[C@@H](O)[C@H](O)[C@H]2O)[C@@H](O)[C@@H]1O [sucrose]
- reduction of αvβ6 dependent FMDV infection [5]: 95%
